# Assay results published in patent US20110039721A1, “METHOD FOR PREDICTION ABOUT CARCINOGENICITY OF SUBSTANCE IN RODENT” (Chemicals Evaluation and Research Institute, priority 2007, published 2011).
# Like-named read-outs stand apart in the source and are kept apart here.
# Key:
# [1] = tested on: mRNA expressed from the genes (A) to (D) in rat liver; assay: Behavior of genes (mRNA expression level, oligo-DNA microarray) in rat liver after 28-day oral administration; type: in vivo; conditions: for Behavior of gene caused by administration of chemical substance, Gene No. 4846 / Behavior of gene caused by administration of chemical substance, Gene No. 2026 / Behavior of gene caused by administration of chemical substance, Gene No. 4218 / Behavior of gene caused by administration of chemical substance, Gene No. 6182 / Behavior of gene caused by administration of chemical substance, Gene No. 5600: gene group (A); for Behavior of gene caused by administration of chemical substance, Gene No. 4846: Unigene No. Rn.144554; for Behavior of gene caused by administration of chemical substance, Gene No. 2026 / Behavior of gene caused by administration of chemical substance, Gene No. 4218: Unigene No. Rn.167075; for Behavior of gene caused by administration of chemical substance, Gene No. 6182: Unigene No. Rn.5834; for Behavior of gene caused by administration of chemical substance, Gene No. 5600: Unigene No. Rn.9836; for Behavior of gene caused by administration of chemical substance, Gene No. 1494 / Behavior of gene caused by administration of chemical substance, Gene No. 2045 / Behavior of gene caused by administration of chemical substance, Gene No. 2203: gene group (B); for Behavior of gene caused by administration of chemical substance, Gene No. 1494: Unigene No. Rn.1430; for Behavior of gene caused by administration of chemical substance, Gene No. 2045: Unigene No. Rn.19329; for Behavior of gene caused by administration of chemical substance, Gene No. 2203: Unigene No. Rn.21240; for Behavior of gene caused by administration of chemical substance, Gene No. 533 / Behavior of gene caused by administration of chemical substance, Gene No. 725 / Behavior of gene caused by administration of chemical substance, Gene No. 1163 / Behavior of gene caused by administration of chemical substance, Gene No. 4973 / Behavior of gene caused by administration of chemical substance, Gene No. 4095 / Behavior of gene caused by administration of chemical substance, Gene No. 1334 / Behavior of gene caused by administration of chemical substance, Gene No. 6620 / Behavior of gene caused by administration of chemical substance, Gene No. 6303 / Behavior of gene caused by administration of chemical substance, Gene No. 5878 / Behavior of gene caused by administration of chemical substance, Gene No. 1131 / Behavior of gene caused by administration of chemical substance, Gene No. 1562 / Behavior of gene caused by administration of chemical substance, Gene No. 1741 / Behavior of gene caused by administration of chemical substance, Gene No. 893 / Behavior of gene caused by administration of chemical substance, Gene No. 6026 / Behavior of gene caused by administration of chemical substance, Gene No. 154 / Behavior of gene caused by administration of chemical substance, Gene No. 1993 / Behavior of gene caused by administration of chemical substance, Gene No. 813 / Behavior of gene caused by administration of chemical substance, Gene No. 2494 / Behavior of gene caused by administration of chemical substance, Gene No. 2546 / Behavior of gene caused by administration of chemical substance, Gene No. 3776 / Behavior of gene caused by administration of chemical substance, Gene No. 3929 / Behavior of gene caused by administration of chemical substance, Gene No. 1119 / Behavior of gene caused by administration of chemical substance, Gene No. 6742 / Behavior of gene caused by administration of chemical substance, Gene No. 5634: gene group (C); for Behavior of gene caused by administration of chemical substance, Gene No. 533: Unigene No. Rn.106184; for Behavior of gene caused by administration of chemical substance, Gene No. 725: Unigene No. Rn.108075; for Behavior of gene caused by administration of chemical substance, Gene No. 1163: Unigene No. Rn.11766; for Behavior of gene caused by administration of chemical substance, Gene No. 4973: Unigene No. Rn.118529; for Behavior of gene caused by administration of chemical substance, Gene No. 4095: Unigene No. Rn.119024; for Behavior of gene caused by administration of chemical substance, Gene No. 1334 / Behavior of gene caused by administration of chemical substance, Gene No. 6620: Unigene No. Rn.120914; for Behavior of gene caused by administration of chemical substance, Gene No. 6303: Unigene No. Rn.123063; for Behavior of gene caused by administration of chemical substance, Gene No. 5878: Unigene No. Rn.143213; for Behavior of gene caused by administration of chemical substance, Gene No. 1131: Unigene No. Rn.144946; for Behavior of gene caused by administration of chemical substance, Gene No. 1562: Unigene No. Rn.14744; for Behavior of gene caused by administration of chemical substance, Gene No. 1741: Unigene No. Rn.1647; for Behavior of gene caused by administration of chemical substance, Gene No. 893: Unigene No. Rn.164817; for Behavior of gene caused by administration of chemical substance, Gene No. 6026: Unigene No. Rn.167685; for Behavior of gene caused by administration of chemical substance, Gene No. 154: Unigene No. Rn.185941; for Behavior of gene caused by administration of chemical substance, Gene No. 1993: Unigene No. Rn.18728; for Behavior of gene caused by administration of chemical substance, Gene No. 813: Unigene No. Rn.201760; for Behavior of gene caused by administration of chemical substance, Gene No. 2494: Unigene No. Rn.23969; for Behavior of gene caused by administration of chemical substance, Gene No. 2546: Unigene No. Rn.24561; for Behavior of gene caused by administration of chemical substance, Gene No. 3776: Unigene No. Rn.43232; for Behavior of gene caused by administration of chemical substance, Gene No. 3929: Unigene No. Rn.4620; for Behavior of gene caused by administration of chemical substance, Gene No. 1119: Unigene No. Rn.9757; for Behavior of gene caused by administration of chemical substance, Gene No. 6742: Unigene No. Rn.9779; for Behavior of gene caused by administration of chemical substance, Gene No. 5634: Unigene No. Rn.9862; for Behavior of gene caused by administration of chemical substance, Gene No. 5726: gene group (D), Unigene No. Rn.9939
# Summary of the method: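 Male F344 SPF rats, 5 weeks old, four per group, received carcinogens, non-carcinogens or solvent vehicle by oral gavage once daily for 28 days. Liver total RNA was then extracted. Changes of ≥1.5-fold or ≤1/1.5 versus vehicle control, in a consistent direction across carcinogens, counted as significant.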
# [2] = classification of the substance (M+/M−); cited from earlier work
# rodent = conditions: classification of the substance (C+/C−); cited from earlier work
# liver = conditions: cited from earlier work
SMILES,"Behavior of gene caused by administration of chemical substance, Gene No. 4846 [1]","Behavior of gene caused by administration of chemical substance, Gene No. 2026 [1]","Behavior of gene caused by administration of chemical substance, Gene No. 4218 [1]","Behavior of gene caused by administration of chemical substance, Gene No. 6182 [1]","Behavior of gene caused by administration of chemical substance, Gene No. 5600 [1]","Behavior of gene caused by administration of chemical substance, Gene No. 1494 [1]","Behavior of gene caused by administration of chemical substance, Gene No. 2045 [1]","Behavior of gene caused by administration of chemical substance, Gene No. 2203 [1]","Behavior of gene caused by administration of chemical substance, Gene No. 533 [1]","Behavior of gene caused by administration of chemical substance, Gene No. 725 [1]","Behavior of gene caused by administration of chemical substance, Gene No. 1163 [1]","Behavior of gene caused by administration of chemical substance, Gene No. 4973 [1]","Behavior of gene caused by administration of chemical substance, Gene No. 4095 [1]","Behavior of gene caused by administration of chemical substance, Gene No. 1334 [1]","Behavior of gene caused by administration of chemical substance, Gene No. 6620 [1]","Behavior of gene caused by administration of chemical substance, Gene No. 6303 [1]","Behavior of gene caused by administration of chemical substance, Gene No. 5878 [1]","Behavior of gene caused by administration of chemical substance, Gene No. 1131 [1]","Behavior of gene caused by administration of chemical substance, Gene No. 1562 [1]","Behavior of gene caused by administration of chemical substance, Gene No. 1741 [1]",other results
"Cl.ClCc1ccccn1 [TS033, 2-Chloromethylpyridine HCl]",−,−,−,−,−,−,−,−,−,−,−,−,−,−,−,−,−,−,−,−,"Behavior of gene caused by administration of chemical substance, Gene No. 893 [1]: −; Behavior of gene caused by administration of chemical substance, Gene No. 6026 [1]: −; Behavior of gene caused by administration of chemical substance, Gene No. 154 [1]: −; Behavior of gene caused by administration of chemical substance, Gene No. 1993 [1]: −; Behavior of gene caused by administration of chemical substance, Gene No. 813 [1]: −; Behavior of gene caused by administration of chemical substance, Gene No. 2494 [1]: −; Behavior of gene caused by administration of chemical substance, Gene No. 2546 [1]: −; Behavior of gene caused by administration of chemical substance, Gene No. 3776 [1]: −; Behavior of gene caused by administration of chemical substance, Gene No. 3929 [1]: −; Behavior of gene caused by administration of chemical substance, Gene No. 1119 [1]: −; Behavior of gene caused by administration of chemical substance, Gene No. 6742 [1]: −; Behavior of gene caused by administration of chemical substance, Gene No. 5634 [1]: −; Behavior of gene caused by administration of chemical substance, Gene No. 5726 [1]: −; Mutagenicity by Ames test [2]: M+; Carcinogenicity (rodent): C−; Liver carcinogenicity (liver; classification of the substance (Cr+/Cr−)): Cr−"
"Nc1ccc([N+](=O)[O-])cc1N [TS035, 4-Nitro-o-phenylenediamine]",−,+,−,−,−,+,−,−,+,+,+,−,−,+,+,+,−,−,−,+,"Behavior of gene caused by administration of chemical substance, Gene No. 893 [1]: −; Behavior of gene caused by administration of chemical substance, Gene No. 6026 [1]: −; Behavior of gene caused by administration of chemical substance, Gene No. 154 [1]: −; Behavior of gene caused by administration of chemical substance, Gene No. 1993 [1]: +; Behavior of gene caused by administration of chemical substance, Gene No. 813 [1]: +; Behavior of gene caused by administration of chemical substance, Gene No. 2494 [1]: −; Behavior of gene caused by administration of chemical substance, Gene No. 2546 [1]: +; Behavior of gene caused by administration of chemical substance, Gene No. 3776 [1]: −; Behavior of gene caused by administration of chemical substance, Gene No. 3929 [1]: −; Behavior of gene caused by administration of chemical substance, Gene No. 1119 [1]: −; Behavior of gene caused by administration of chemical substance, Gene No. 6742 [1]: −; Behavior of gene caused by administration of chemical substance, Gene No. 5634 [1]: +; Behavior of gene caused by administration of chemical substance, Gene No. 5726 [1]: −; Mutagenicity by Ames test [2]: M+; Carcinogenicity (rodent): C−; Liver carcinogenicity (liver; in vivo): Cr−"
